Where two headings read alike, the source gives them in different places.
Experiments:
[1] = system: full-length Ebola Zaire GP pseudotyped VSV (EBOV_FL); assay: microbe, parasite or virus in culture; assay type: cell-based; conditions: Zaire ebolavirus, read-out: EC50 Pseudotype Assays EBOV_FL
[2] = system: EBOV mucin-domain-deleted glycoprotein pseudotyped VSV; assay: microbe, parasite or virus in culture; assay type: cell-based, Zaire ebolavirus
[3] = system: parent VSV virus expressing the native VSV glycoprotein; assay: microbe, parasite or virus in culture; assay type: cell-based; conditions: Vesicular stomatitis virus, Vero; for EC50: read-out: EC50 Pseudotype Assays VSV; for inhibition at 5 µM: read-out: VSV % inh. at 5 μM
[4] = system: full-length LASV glycoprotein pseudotyped VSV; assay: microbe, parasite or virus in culture; assay type: cell-based, Lassa virus; conditions: Vesicular stomatitis virus, read-out: EC50 Pseudotype Assays LASV
[5] = system: full-length Marburgvirus (MARV) GP pseudotyped VSV; assay: microbe, parasite or virus in culture; assay type: cell-based, Marburg marburgvirus; conditions: for EC50: Orthomarburgvirus, read-out: EC50 Pseudotype Assays MARV
in vitro = conditions: African green monkey
[6] = system: BDBV mucin-domain-deleted glycoprotein pseudotyped VSV; assay: microbe, parasite or virus in culture; assay type: cell-based, Bundibugyo ebolavirus
wild-type Ebola Zaire [7] = assay: microbe, parasite or virus in culture; conditions: Zaire ebolavirus, HeLa, read-out: Ebola Zaire EC50
wild-type Ebola Zaire [8] = system: wild-type Ebola Zaire
wild-type Sudan Gulu [9] = assay: microbe, parasite or virus in culture; conditions: Sudan ebolavirus, HeLa, read-out: Sudan Gulu EC50
wild-type Sudan Gulu [10] = system: wild-type Sudan Gulu
Vero cells = conditions: for % cell viability at 5 μM / % cell viability at 3 μM / % cell viability at 10 μM: African green monkey
[11] = Zaire ebolavirus, Vero, read-out: EC50 EBOV
[12] = Zaire ebolavirus, Vero, read-out: EC50 Pseudotype Assays EBOV
[13] = Vesicular stomatitis virus, Vero, read-out: EC50 BDBV
[14] = Vesicular stomatitis virus, Vero, read-out: EC50 Pseudotype Assays BDBV
[15] = Zaire ebolavirus, Vero, 24 h, read-out: EC50 EBOV
[16] = Vesicular stomatitis virus, Vero, 24 h, read-out: EC50 BDBV

CN1CCC(NC(=O)C23CC4CC(C2)CC(c2ccccc2)(C4)C3)CC1 [Example A26]
EC50 [1]: 160 nM | EC50 [2, 11]: 120 nM | EC50 [2, 12]: 120 nM | EC50 [3]: > 10000 nM | EC50 [4]: > 10000 nM | EC50 [5]: 2700 nM | CC50 (in vitro; CC50): 34000 nM | CC50 (in vitro; Cytotox CC50): > 10000 nM | EC50 [6, 13]: 90 nM | EC50 [6, 14]: 90 nM

CC12CC3CC(C(=O)N4CCCN(CCCN5CCCC5)CC4)(C1)CC(c1ccccc1)(C3)C2 (stereo not drawn) [Example A43]
EC50 (wild-type Ebola Zaire [7]): 180 nM | EC50 [2, 11]: 140 nM | CC50 (in vitro; CC50): 1200 nM | Ebola Zaire SI (CC50/EC50) (wild-type Ebola Zaire [8]): 36.3 | EC50 (wild-type Sudan Gulu [9]): 60 nM | Sudan Gulu SI (CC50/EC50) (wild-type Sudan Gulu [10]): 104 | EC50 [6, 13]: 80 nM

CC12CC3CC(C(=O)N[C@H]4CN5CCC4CC5)(C1)CC(c1ccccc1)(C3)C2 (stereo partly drawn) [Example A45]
EC50 [1]: 120 nM | EC50 (wild-type Ebola Zaire [7]): 380 nM | EC50 [2, 11]: 60 nM | EC50 [2, 12]: 61 nM | EC50 [3]: > 10000 nM | EC50 [4]: > 10000 nM | MARV pseudotyped virus EC50 concentration (in words) [5]: sub-micromolar | EC50 [5]: 290 nM | CC50 (in vitro; CC50): 7200 nM | CC50 (in vitro; Cytotox CC50): > 10000 nM | Ebola Zaire SI (CC50/EC50) (wild-type Ebola Zaire [8]): >28 | EC50 [6, 13]: 140 nM | EC50 [6, 14]: 160 nM

CN1CCN(NC(=O)C23CC4CC(C)(C2)CC(c2ccccc2)(C4)C3)CC1 (stereo not drawn) [Example A47]
EC50 (wild-type Ebola Zaire [7]): 710 nM | EC50 [2, 11]: 70 nM | CC50 (in vitro; CC50): 36200 nM | Ebola Zaire SI (CC50/EC50) (wild-type Ebola Zaire [8]): >8.5 | EC50 [6, 13]: 170 nM

O=C(N1CCNCC1)C12CC3CC(C1)CC(c1ccccc1)(C3)C2 [Example A60]
EC50 [1]: 280 nM | EC50 [2, 11]: 210 nM | EC50 [2, 12]: 260 nM | EC50 [3]: > 10000 nM | EC50 [4]: > 10000 nM | EC50 [5]: 7900 nM | CC50 (in vitro; Cytotox CC50): > 10000 nM | EC50 [6, 13]: 170 nM | EC50 [6, 14]: 210 nM

CC12CC3CC(C(=O)N4CCNCC4)(C1)CC(c1ccccc1)(C3)C2 (stereo not drawn) [Example A71]
EC50 (wild-type Ebola Zaire [7]): 870 nM | EC50 [2, 11]: 130 nM | CC50 (in vitro; CC50): 4600 nM | Ebola Zaire SI (CC50/EC50) (wild-type Ebola Zaire [8]): >6 | EC50 [6, 13]: 130 nM

O=C(NC1CCNCC1)C1C2CC3CC1CC(c1ccccc1)(C3)C2 (stereo not drawn) [Example A81]
EC50 (wild-type Ebola Zaire [7]): 1110 nM | EC50 [2, 11]: 180 nM | CC50 (in vitro; CC50): 13900 nM | Ebola Zaire SI (CC50/EC50) (wild-type Ebola Zaire [8]): 48.9 | EC50 (wild-type Sudan Gulu [9]): 210 nM | Sudan Gulu SI (CC50/EC50) (wild-type Sudan Gulu [10]): 266 | EC50 [6, 13]: 110 nM

O=C(NC1CCN(Cc2ccccc2)CC1)C12CC3CC(C1)CC(c1ccccc1)(C3)C2 [Example B1, N-(1-benzylpiperidin-4-yl)-3-phenyladamantane-1-carboxamide]
EC50 [2, 15]: 440 nM | inhibition at 5 µM [3]: < 20% | EC50 [6, 16]: 770 nM | % cell viability at 5 μM (Vero cells): 62%

CC(C)CN1CCOC(CNC(=O)C23CC4CC(C2)CC(c2ccccc2)(C4)C3)C1 (stereo not drawn) [Example B2, N-{[4-(2-methylpropyl)morpholin-2-yl]methyl}-3-phenyladamantane-1-carboxamide]
EC50 [2, 15]: 570 nM | EC50 [6, 16]: 930 nM | % cell viability at 3 μM (Vero cells): 100% | % cell viability at 10 μM (Vero cells): 97%

O=C(N1CCN(c2ccccc2)CC1)C12CC3CC(C1)CC(c1ccccc1)(C3)C2 [Example B3, 1-phenyl-4-[(3-phenyladamantan-1-yl)carbonyl]piperazine]
EC50 [2, 15]: 610 nM | EC50 [6, 16]: > 5000 nM | % cell viability at 5 μM (Vero cells): 83%

CC(C)(CNC(=O)C12CC3CC(C1)CC(c1ccccc1)(C3)C2)N1CCOCC1 [Example B4, N-[2-methyl-2-(morpholin-4-yl)propyl]-3-phenyladamantane-1-carboxamide]
EC50 [2, 15]: 690 nM | EC50 [6, 16]: 2690 nM | % cell viability at 3 μM (Vero cells): 100% | % cell viability at 10 μM (Vero cells): 114%

O=C(N[C@@H]1CCNC1)C12CC3CC(C1)CC(c1ccccc1)(C3)C2 [Example B5, 3-phenyl-N-[(3R)-pyrrolidin-3-yl] adamantane-1-carboxamide]
EC50 [2, 15]: 790 nM | inhibition at 5 µM [3]: < 20% | EC50 [6, 16]: 560 nM | % cell viability at 5 μM (Vero cells): 97%

COc1ccc(N2CCN(CCCNC(=O)C34CC5CC(C3)CC(c3ccccc3)(C5)C4)CC2)cc1 [Example B6, N-{3-[4-(4-methoxyphenyl)piperazin-1-yl]propyl}-3-phenyl adamantane-1-carboxamide]
EC50 [2, 15]: 920 nM | EC50 [6, 16]: 1600 nM | % cell viability at 3 μM (Vero cells): 75% | % cell viability at 10 μM (Vero cells): 25%

COc1ccc(C(CNC(=O)C23CC4CC(C2)CC(c2ccccc2)(C4)C3)N2CCOCC2)cc1 (stereo not drawn) [Example B7, N-[2-(4-methoxyphenyl)-2-(morpholin-4-yl)ethyl]-3-phenyl adamantane-1-carboxamide]
EC50 [2, 15]: 3200 nM | EC50 [6, 16]: 3100 nM | % cell viability at 3 μM (Vero cells): 112% | % cell viability at 10 μM (Vero cells): 95%

O=C(NCC(c1cccs1)N1CCOCC1)C12CC3CC(C1)CC(c1ccccc1)(C3)C2 (stereo not drawn) [Example B8, N-[2-(morpholin-4-yl)-2-(thiophen-2-yl)ethyl]-3-phenyladamantane-1-carboxamide]
EC50 [2, 15]: 3600 nM | EC50 [6, 16]: 4600 nM | % cell viability at 3 μM (Vero cells): 103% | % cell viability at 10 μM (Vero cells): 90%

O=C(NC1CCN(Cc2ccccc2)CC1)C12CC3CC(CC(Cl)(C3)C1)C2 [Example B9, N-(1-benzylpiperidin-4-yl)-3-chloro adamantane-1-carboxamide]
EC50 [2, 15]: 3800 nM | EC50 [6, 16]: 3100 nM | % cell viability at 3 μM (Vero cells): 112% | % cell viability at 10 μM (Vero cells): 104%

O=C(CN1CCN(C(=O)C23CC4CC(C2)CC(c2ccccc2)(C4)C3)CC1)NC1CC1 [Example B10, N-cyclopropyl-2-{4-[(3-phenyladamantan-1-yl)carbonyl]piperazin-1-yl}acetamide]
EC50 [2, 15]: < 5000 nM | inhibition at 5 µM [3]: < 20%

Cc1ccc(C23CC4CC(CC(C(=O)NC5CN6CCC5CC6)(C4)C2)C3)cc1 (stereo not drawn) [Example B11, N-{1-azabicyclo[2.2.2]octan-3-yl}-3-(4-methylphenyl)adamantane-1-carboxamide]
EC50 [2, 15]: < 5000 nM | inhibition at 5 µM [3]: < 20% | % cell viability at 5 μM (Vero cells): 92%

CC12CC3CC(C)(C1)CC(C(=O)NCCN1CCCCC1)(C3)C2 [Example B12, 3,5-dimethyl-N-[2-(piperidin-1-yl)ethyl] adamantane-1-carboxamide]
EC50 [2, 15]: 50000 nM | inhibition at 5 µM [3]: < 20% | % cell viability at 5 μM (Vero cells): 90%

Cc1ccc(C23CC4CC(CC(C(=O)N5CCN(Cc6ccccc6)CC5)(C4)C2)C3)cc1 [Example B13, 1-benzyl-4-{[3-(4-methylphenyl)adamantan-1-yl]carbonyl}piperazine]
EC50 [2, 15]: > 5000 nM | inhibition at 5 µM [3]: < 20% | EC50 [6, 16]: > 5000 nM

Cc1ccc(C23CC4CC(CC(C(=O)N5CCN(C)CC5)(C4)C2)C3)cc1 [Example B14, 1-methyl-4-{[3-(4-methylphenyl)adamantan-1-yl]carbonyl} piperazine]
EC50 [2, 15]: 5600 nM | inhibition at 5 µM [3]: < 20% | % cell viability at 5 μM (Vero cells): 95%

O=C(NC1CCN(Cc2ccccc2)CC1)C12CC3CC(CC(C3)C1)C2 [Example B15, N-(1-benzylpiperidin-4-yl)adamantane-1-carboxamide]
EC50 [2, 15]: 5900 nM | EC50 [6, 16]: 3900 nM | % cell viability at 3 μM (Vero cells): 99% | % cell viability at 10 μM (Vero cells): 98%

c1ccc(C23CC4CC(CC(CNC5CCNCC5)(C4)C2)C3)cc1 [Example C2, N-((3-phenyladamantan-1-yl)methyl)piperidin-4-amine]
EC50 (wild-type Ebola Zaire [7]): 250 nM | EC50 [2, 11]: 250 nM | CC50 (in vitro; CC50): 3600 nM | Ebola Zaire SI (CC50/EC50) (wild-type Ebola Zaire [8]): 25.3 | EC50 (wild-type Sudan Gulu [9]): 60 nM | Sudan Gulu SI (CC50/EC50) (wild-type Sudan Gulu [10]): 109 | EC50 [6, 13]: 200 nM

CC1CCCC(C)N1CC(O)COCCC12CC3CC(CC(C3)C1)C2 (stereo not drawn) [Example D8, 1-[2-(adamantan-1-yl)ethoxy]-3-(2,6-dimethylpiperidin-1-yl) propan-2-ol]
EC50 [1]: 300 nM | EC50 [2, 15]: 210 nM | EC50 [2, 12]: 210 nM | EC50 [3]: 3800 nM | EC50 [4]: 4900 nM | MARV pseudotyped virus EC50 concentration (in words) [5]: sub-micromolar | EC50 [5]: 590 nM | CC50 (in vitro; CC50): 3800 nM | CC50 (in vitro; Cytotox CC50): 4000 nM | EC50 [6, 16]: 80 nM | EC50 [6, 14]: 80 nM

CCN(CC)CCNc1nc(C23CC4CC(CC(C4)C2)C3)cs1 [Example D32, (2-{[4-(adamantan-1-yl)-1,3-thiazol-2-yl]amino}ethyl) diethylamine]
EC50 [1]: 200 nM | EC50 [2, 15]: 230 nM | EC50 [2, 12]: 230 nM | EC50 [3]: > 10000 nM | EC50 [4]: > 10000 nM | MARV pseudotyped virus EC50 concentration (in words) [5]: sub-micromolar | EC50 [5]: 610 nM | CC50 (in vitro; CC50): 9000 nM | CC50 (in vitro; Cytotox CC50): > 10000 nM | EC50 [6, 16]: 170 nM | EC50 [6, 14]: 170 nM

Cc1ccccc1-c1nnn(CC(=O)NC(C)C23CC4CC(CC(C4)C2)C3)n1 (stereo not drawn) [Example D42, N-[1-(adamantan-1-yl)ethyl]-2-[5-(2-methylphenyl)-2H-1,2,3,4-tetrazol-2-yl] acetamide]
EC50 ([2]; read-out: EC50 EBOV): 3200 nM | EC50 ([6]; read-out: EC50 BDBV): 3900 nM | CC50 (Vero cells): > 10000 nM

— patent publication US12240857B2 (priority 2017, dated 2025)
